Legend:
[1] = system: restraint stress-induced defecation; test: Action on restraint stress-induced defecation; type: in vivo, male Wistar rats; settings: 10 mg/kg p.o. 1 hour before restraint stress; measured 1 hour after stress initiation; rats, n=10; control of each sub-table 1.06-1.71 g
Description: An experiment was carried out according to the method of Kishibayashi et al. [Japanese Journal of Pharmacology, Vol. 69, No. 4, pp. 495-502 (1993)]. In the experiment, male Wistar rats aged 6 to 7 weeks (supplied from Charles River Laboratories Japan, Inc.) were used. […] The rats were lightly anesthetized with diethyl ether, and the thoracic trunk and the forelimbs were wrapped with a tape to produce mild stress. One hour after stress initiation, the wet weight of fecal pellets was measured. Each drug solution was orally administered 1 hour before restraint stress. A test compound was suspended at a concentration of 2 mg/mL in an aqueous solution of 0.5 w/v % methyl cellulose 400 cP and orally administered at a volume of 5 mL/kg (at a dose of 10 mg/kg). In a control, an aqueous solution of 0.5 w/v % methyl cellulose 400 cP was administered. Ten rats were used in each group. […] YM060, a serotonin 5-HT3 receptor antagonist [The Journal of Pharmacology and Experimental Therapeutics, Vol. 259, No. 2, pp. 815-819 (1991), Astellas Pharma. Inc., online, internet (URL: […].com/jp/companry/news/2006/pdf/060131.pdf)], which is being applied as a therapeutic agent for irritable bowel syndrome, was administered at a dose of 0.1 mg/kg.

[2] = system: capsaicin-induced visceral pain; test: Action on capsaicin-induced visceral pain model; type: in vivo, male ddY mice; settings: doses of 3 and 30 mg/kg p.o. 30 minutes before 0.1% capsaicin into the colon; mice, n=10; 60 minutes
Description: It has been reported that a visceral pain is induced by the administration of capsaicin into the colon [Pain, Vol. 92, No. 3, pp. 335-342 (2001)].
A suspension of Compound 1-1 was prepared with an agate mortar using 0.5 w/v % MC.
Capsaicin (Sigma-Aldrich) was dissolved in a physiological saline solution containing 10% ethanol (Kanto Chemical co., Ltd.) and 10% polyoxyethylene (20) sorbitan monooleate (Tween 80, Wako Pure Chemical Industries, Ltd.), and the resultant solution was used. A test compound was orally administered in a volume of 10 mL/kg, and MC was administered to a control group in the same volume.
Male ddY mice (Japan SLC, Inc.) with a body weight of 27 g to 29 g were purchased and used in an experiment. After inspection and acclimation for 2 days or more, the mice showing favorable increases in body weight and no obvious abnormality were used. […]
After the oral administration of Compound 1-1 or 0.5 w/v % MC, each mouse was housed in a cage and left therein. […] Then, each of the mice was placed in an acrylic cage (8 cm in length×8 cm in width×15 cm in height) and recorded with a video (Sony) for 1 hour. After the recording, the following 4 behaviors and symptoms were measured as indexes of capsaicin-induced visceral pain at an interval of 5 minutes. […]

Q: For `C[C@](O)(C(=O)Nc1cccc2c1C(=O)c1sccc1CS2(=O)=O)C(F)(F)F` [Compound 1-1], which “Wet weight of fecal pellets” value [1] is on record?
A: The value was 0.27 ± 0.06 g.

Q: And the “numbers of pain-related behaviors” value [2]?
A: Its value is “suppressed the pain-related behaviors”.
